Results: PubChem BioAssay (NCI)
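These data come from cells grown in 96-well plates and exposed to compound for 48 hours at five concentrations. GI50 is the concentration that inhibits growth by half. The concentration for full growth arrest is given as TGI.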

Experiments:
Experiment in all cases: growth of human tumour cells (NCI), 48 h
HS 578T breast = tested on: HS 578T breast
OVCAR-3 ovarian = tested on: OVCAR-3 ovarian
HL-60(TB) leukemia = tested on: HL-60(TB) leukemia
HCT-116 colon = tested on: HCT-116 colon
SF-268 CNS = tested on: SF-268 CNS
SW-620 colon = tested on: SW-620 colon
SNB-75 CNS = tested on: SNB-75 CNS
NCI-H23 lung = tested on: NCI-H23 lung
HCT-15 colon = tested on: HCT-15 colon
786-0 renal = tested on: 786-0 renal
NCI-H226 lung = tested on: NCI-H226 lung
SK-MEL-2 melanoma = tested on: SK-MEL-2 melanoma
A498 renal = tested on: A498 renal
MALME-3M melanoma = tested on: MALME-3M melanoma
DU-145 prostate = tested on: DU-145 prostate
A549 NSCLC = tested on: A549 NSCLC
ACHN renal = tested on: ACHN renal
MDA-MB-435 = tested on: MDA-MB-435
MOLT-4 leukemia = tested on: MOLT-4 leukemia
CAKI-1 renal = tested on: CAKI-1 renal
NCI-H522 lung = tested on: NCI-H522 lung
HCC-2998 colon = tested on: HCC-2998 colon
NCI-H460 lung = tested on: NCI-H460 lung
U251 CNS = tested on: U251 CNS
NCI/ADR-RES ovarian = tested on: NCI/ADR-RES ovarian
SF-539 CNS = tested on: SF-539 CNS
COLO 205 colon = tested on: COLO 205 colon
SR leukemia = tested on: SR leukemia
MDA-MB-231 breast = tested on: MDA-MB-231 breast

Structure (SMILES): COc1ccc2c3ccnc(C(F)(F)F)c3n(CCCCN)c2c1
- TGI (HS 578T breast): 22.8 µM
- GI50 (OVCAR-3 ovarian): 3.82 µM
- TGI (OVCAR-3 ovarian): 15.3 µM
- GI50 (HL-60(TB) leukemia): 4.78 µM
- TGI (HL-60(TB) leukemia): 20.1 µM
- GI50 (HCT-116 colon): 3.84 µM
- TGI (HCT-116 colon): 13.4 µM
- GI50 (SF-268 CNS): 6.62 µM
- TGI (SF-268 CNS): 21.5 µM
- GI50 (SW-620 colon): 3.28 µM
- TGI (SW-620 colon): 14.6 µM
- GI50 (SNB-75 CNS): 2.19 µM
- TGI (SNB-75 CNS): 12.8 µM
- GI50 (NCI-H23 lung): 8.65 µM
- TGI (NCI-H23 lung): 22.2 µM
- GI50 (HCT-15 colon): 10.8 µM
- TGI (HCT-15 colon): 25 µM
- GI50 (786-0 renal): 7.09 µM
- TGI (786-0 renal): 19.4 µM
- GI50 (NCI-H226 lung): 7.42 µM
- TGI (NCI-H226 lung): 30.5 µM
- GI50 (SK-MEL-2 melanoma): 16.8 µM
- TGI (SK-MEL-2 melanoma): 35.7 µM
- GI50 (A498 renal): 5.25 µM
- TGI (A498 renal): 18 µM
- GI50 (MALME-3M melanoma): 2.02 µM
- TGI (MALME-3M melanoma): 5.36 µM
- GI50 (DU-145 prostate): 9.04 µM
- TGI (DU-145 prostate): 21.2 µM
- GI50 (A549 NSCLC): 11.6 µM
- TGI (A549 NSCLC): 26.3 µM
- GI50 (ACHN renal): 4.58 µM
- TGI (ACHN renal): 16.1 µM
- GI50 (MDA-MB-435): 5.69 µM
- TGI (MDA-MB-435): 20.7 µM
- GI50 (MOLT-4 leukemia): 3.93 µM
- TGI (MOLT-4 leukemia): 12.8 µM
- GI50 (CAKI-1 renal): 4.66 µM
- TGI (CAKI-1 renal): 21.4 µM
- GI50 (NCI-H522 lung): 6.22 µM
- TGI (NCI-H522 lung): 21.4 µM
- GI50 (HCC-2998 colon): 5.23 µM
- TGI (HCC-2998 colon): 16.7 µM
- GI50 (NCI-H460 lung): 5.18 µM
- TGI (NCI-H460 lung): 17.7 µM
- GI50 (U251 CNS): 7.31 µM
- TGI (U251 CNS): 21.2 µM
- GI50 (NCI/ADR-RES ovarian): 8.6 µM
- TGI (NCI/ADR-RES ovarian): 28.1 µM
- GI50 (SF-539 CNS): 6.58 µM
- TGI (SF-539 CNS): 20.2 µM
- GI50 (COLO 205 colon): 2.74 µM
- TGI (COLO 205 colon): 12.1 µM
- GI50 (SR leukemia): 2.64 µM
- TGI (SR leukemia): 9.52 µM
- GI50 (MDA-MB-231 breast): 8.12 µM
- TGI (MDA-MB-231 breast): 21.7 µM
